Test system: patients with advanced solid tumors
Assay: Phase I trial: safety, tolerability, DLT, MTD (CTCAE v4.0)
Assay type: in vivo
From the text: Eligible patients had at least one measurable lesion per RECIST v 1.1, Eastern Cooperative Oncology Group (ECOG) performance status of 0 or 1, and adequate hematological, renal, cardiac and hepatic functions. The primary objectives were to assess safety and tolerability as well as to determine the MTD, DLT, and dose recommended for further study. The secondary objectives were to assess the PK and preliminary efficacy of CT053PTSA.
An initial accelerated titration design was used in the 15 and 30 mg QD cohorts, and the “3+3” schema was used starting in the 60 mg QD cohort. […] The study protocol was approved by an institutional review board at Sun Yat-sen University Cancer Center. Written informed consent was obtained from all the patients before enrollment.
Descriptive statistics of safety are presented per CTCAE v4.0. Subjects who received at least one dose of CT053PTSA were considered eligible to be evaluated and included in safety analyses. […] According to the RECIST 1.1 criteria, imaging examinations were performed at each specified time point in the protocol. The antitumor activity was measured by RECIST1.1.

Cc1c(C(=O)Nc2ccc(Oc3ccnc4cc(OCC(C)(C)O)ccc34)c(F)c2)c(=O)n(-c2ccccc2)n1C [CT053PTSA]
0 n (%): Blood sodium decreased, ≥ G3 (100mg (n = 7)) | Blood uric acid increased, All (100mg (n = 7)) | Blood uric acid increased, ≥ G3 (100mg (n = 7)) | Decreased appetite, ≥ G3 (100mg (n = 7)) | Diarrhea, ≥ G3 (100mg (n = 7)) | Dizziness, ≥ G3 (100mg (n = 7)) | Dry mouth, ≥ G3 (100mg (n = 7)) | Electrocardiogram QT prolonged, ≥ G3 (100mg (n = 7)) | Electrolyte imbalance, All (100mg (n = 7)) | Electrolyte imbalance, ≥ G3 (100mg (n = 7)) | Hemoglobin decreased, All (100mg (n = 7)) | Hemoglobin decreased, ≥ G3 (100mg (n = 7)) | Hypertension, ≥ G3 (100mg (n = 7)) | Hyponatremia, ≥ G3 (100mg (n = 7)) | Hypoparathyroidism, All (100mg (n = 7)) | Hypoparathyroidism, ≥ G3 (100mg (n = 7)) | Mouth ulceration, All (100mg (n = 7)) | Mouth ulceration, ≥ G3 (100mg (n = 7)) | Nausea, ≥ G3 (100mg (n = 7)) | Oropharyngeal pain, ≥ G3 (100mg (n = 7)) | Pain, ≥ G3 (100mg (n = 7)) | Palmar-plantar erythrodysaesthesia syndrome, ≥ G3 (100mg (n = 7)) | Proteinuria, ≥ G3 (100mg (n = 7)) | Pyrexia, All (100mg (n = 7)) | Pyrexia, ≥ G3 (100mg (n = 7)) | Sinus bradycardia, All (100mg (n = 7)) | Sinus bradycardia, ≥ G3 (100mg (n = 7)) | Stomatitis, ≥ G3 (100mg (n = 7)) | Vomiting, All (100mg (n = 7)) | Vomiting, ≥ G3 (100mg (n = 7)) | leukopenia, ≥ G3 (100mg (n = 7)) | neutropenia, ≥ G3 (100mg (n = 7)) | Anaemia, All (150mg (n = 5)) | Anaemia, ≥ G3 (150mg (n = 5)) | Blood chloride decreased, All (150mg (n = 5)) | Blood chloride decreased, ≥ G3 (150mg (n = 5)) | Blood creatinine increased, ≥ G3 (150mg (n = 5)) | Blood potassium decreased, ≥ G3 (150mg (n = 5)) | Blood uric acid increased, ≥ G3 (150mg (n = 5)) | Diarrhea, ≥ G3 (150mg (n = 5)) | Dizziness, All (150mg (n = 5)) | Dizziness, ≥ G3 (150mg (n = 5)) | Dry mouth, All (150mg (n = 5)) | Dry mouth, ≥ G3 (150mg (n = 5)) | Electrocardiogram QT prolonged, ≥ G3 (150mg (n = 5)) | Electrolyte imbalance, ≥ G3 (150mg (n = 5)) | Hemoglobin decreased, ≥ G3 (150mg (n = 5)) | Hyponatremia, All (150mg (n = 5)) | Hyponatremia, ≥ G3 (150mg (n = 5)) | Hypoparathyroidism, ≥ G3 (150mg (n = 5)) | Mouth ulceration, ≥ G3 (150mg (n = 5)) | Nausea, ≥ G3 (150mg (n = 5)) | Oropharyngeal pain, All (150mg (n = 5)) | Oropharyngeal pain, ≥ G3 (150mg (n = 5)) | Pain, All (150mg (n = 5)) | Pain, ≥ G3 (150mg (n = 5)) | Palmar-plantar erythrodysaesthesia syndrome, All (150mg (n = 5)) | Palmar-plantar erythrodysaesthesia syndrome, ≥ G3 (150mg (n = 5))
1/6 and one out of six: patients with DLT / patients eligible for DLT assessment (100 mg QD)
2 (40) n (%): Hypertension, All (150mg (n = 5))
4 (57.1) n (%): Platelet count decreased, All (100mg (n = 7)) | leukopenia, All (100mg (n = 7)) | neutropenia, All (100mg (n = 7))
1 (20) n (%): Blood creatinine increased, All (150mg (n = 5)) | Blood potassium decreased, All (150mg (n = 5)) | Blood sodium decreased, All (150mg (n = 5)) | Blood sodium decreased, ≥ G3 (150mg (n = 5)) | Blood uric acid increased, All (150mg (n = 5)) | Decreased appetite, ≥ G3 (150mg (n = 5)) | Diarrhea, All (150mg (n = 5)) | Electrocardiogram QT prolonged, All (150mg (n = 5)) | Electrolyte imbalance, All (150mg (n = 5)) | Hemoglobin decreased, All (150mg (n = 5)) | Hypertension, ≥ G3 (150mg (n = 5)) | Hypoparathyroidism, All (150mg (n = 5)) | Mouth ulceration, All (150mg (n = 5)) | Nausea, All (150mg (n = 5)) | Platelet count decreased, All (150mg (n = 5))
3 (60) n (%): Decreased appetite, All (150mg (n = 5))
6 (85.7) n (%): transaminase elevation, All (100mg (n = 7))
2 (28.6) n (%): Decreased appetite, All (100mg (n = 7)) | Hypertension, All (100mg (n = 7))
1 (14.3) n (%): Diarrhea, All (100mg (n = 7)) | Dizziness, All (100mg (n = 7)) | Dry mouth, All (100mg (n = 7)) | Electrocardiogram QT prolonged, All (100mg (n = 7)) | Hyponatremia, All (100mg (n = 7)) | Nausea, All (100mg (n = 7)) | Oropharyngeal pain, All (100mg (n = 7)) | Pain, All (100mg (n = 7)) | Palmar-plantar erythrodysaesthesia syndrome, All (100mg (n = 7)) | Platelet count decreased, ≥ G3 (100mg (n = 7)) | Proteinuria, All (100mg (n = 7)) | Stomatitis, All (100mg (n = 7)) | transaminase elevation, ≥ G3 (100mg (n = 7))

— paper PMC9632963, “Preclinical characterization and phase I clinical trial of CT053PTSA targets MET, AXL, and VEGFR2 in patients with advanced solid tumors” (Frontiers in Immunology, 2022)
